Results on five compounds are retold here after ChEMBL document CHEMBL1151604, “Enantiomerically pure synthesis and antiviral evaluation of [(2S, 3S)-bis(hydroxymethyl)azetidin-1-yl] purine nucleosides: Analogs of oxetanocin-A” (Bioorg Med Chem Lett, 1995).

Values after ≈ are worked out from the molar mass of the structure shown.

In general, EC50 refers to the concentration that produces a half-maximal response. Higher therefore signals a less potent agent.

Holding throughout (format): functional, cell-based
Assay [1] concerns MT4. In words: In vitro evaluation of antiviral activity against HSV-1 (Herpes simplex virus-1) induced cytopathic effect in MT-4 cells by indirect immunofluorescence assay. The conditions noted are these: Homo sapiens. For orientation: Damage to the host cells serves as the signal in cytopathic effect assays.
Assay [2] concerns Vero. In words: Compound was evaluated for cytotoxicity against vero cells up to a concentration of 100 ug/mL; non toxic. The note with it: Chlorocebus sabaeus.
Assay [3] has as its system Vero. The assay is described as follows: In vitro evaluation of antiviral activity against HSV-1 (Herpes simplex virus-1) induced cytopathic effect in vero cells by a plaque reduction assay. The conditions noted are these: Chlorocebus sabaeus.
The test system of assay [4] is Vero. The assay is described as follows: In vitro evaluation of antiviral activity against HSV-2 (Herpes simplex virus-2) induced cytopathic effect in vero cells by a plaque reduction assay. The note with it: Chlorocebus sabaeus.

Consider `Nc1ncnc2c1ncn2N1CC(CO)C1CO` (configuration not stated), for which the EC50 came out at 0.37 µg/mL (≈ 1.48 µM) in assay [1], 33.2 µg/mL (≈ 133 µM) in assay [3] and 34.9 µg/mL (≈ 139 µM) in assay [4]. Besides, the Activity entry in assay [2] was “Not toxic”.
As to `Nc1nc2c(ncn2COCCO)c(=O)[nH]1` [ACYCLOVIR], the values for the EC50 in assay [3] and in assay [4] were 0.32 µg/mL (≈ 1.42 µM) and 0.39 µg/mL (≈ 1.73 µM), respectively.
As to `Cc1cn([C@H]2C[C@H](N=[N+]=[N-])[C@@H](CO)O2)c(=O)[nH]c1=O` [ZIDOVUDINE], the EC50 in assay [1] turned out to be 0.0032 µg/mL (≈ 0.012 µM).
Take `O=c1[nH]cnc2c1ncn2[C@H]1CC[C@@H](CO)O1` [DIDANOSINE]: the EC50 in assay [1] came out at 0.46 µg/mL (≈ 1.95 µM).
On to `Nc1nc(O)c2ncn(N3CC(CO)C3CO)c2n1` (configuration not stated), for which the EC50 in assay [1] stood at 0.46 µg/mL (≈ 1.73 µM); in assay [3] it was 5.36 µg/mL (≈ 20.1 µM); in assay [4], 6.32 µg/mL (≈ 23.7 µM). The Activity entry in assay [2] is “Not toxic”.
